Test system: 521955-158-R2-J5-PDC complex spheroid growth
Test: Anticancer human tumor 521955-158-R2-J5-PDC patient-derived pancreatic carcinoma cell line growth inhibition [AhR]
Conditions: for IC50: curve of first compound; for viability, T/C: stronger effect = lower value
From the text: Multicellular complex tumor spheroid response to aryl hydrocarbon receptor antagonists in combination with a variety of drugs and investigational agents in selected tumor cell lines
The current study was undertaken to assess response to aryl hydrocarbon receptor antagonists in combination with standard-of-care drugs and investigational agents in solid tumor complex spheroid models. Complex spheroids include a stromal component modeled by human endothelial cells (HUVEC) and fibroblasts modeled by human mesenchymal stem cells (MSCs). The concentration ranges selected for each drug and investigational agent were based upon clinically achievable concentrations if the clinical Cmax of the agent was known.
Compounds. The drugs and investigational agents: BAY 2416964 (NSC825713), GNF351 (NSC835774), CH-223191 (NSC835775), CPI-455 (NSC825282), aza-TdCyd (NSC777586), decitabine (NSC127716), belinostat (NSC758774), entinostat (NSC756642), pevonedistat (NSC761192), tazemetostat (NSC777109), talazoparib (NSC765396), olaparib (NSC753686), selinexor (NSC780203), nedisertib (M3814, NSC802822), bortezomib (NSC756655), venetoclax (NSC766270), doxorubicin (NSC123127), elimusertib (BAY189344, NSC800525), ceralasertib (AZD6738, NSC777638), TAK-243 (NSC785004), alisertib (NSC759677), etoposide (NSC141540), topotecan (NSC609699), eribulin (NSC707389), gemcitabine (NSC613327), carboplatin (NSC241240), cisplatin (NSC119875), and SN-38 (NSC673596) were obtained from the National Cancer Institute (NCI) Developmental Therapeutics Program Chemical Repository (32). The FDA-approved anticancer drug set is available from the Developmental Therapeutics Program at https://dtp.cancer.gov/organization/dscb/obtaining/available plates.htm. […] The stock solutions were prepared in dimethyl sulfoxide (DMSO, Sigma-Aldrich, St. Louis, MO, cat. D2650), except for the platinum compounds which were prepared in saline (Quality Biological, Gaithersburg, MD, cat. 114-055-101), at 800-fold the tested concentration and stored at -70 degrees C prior to their use. All drugs and investigational agents were tested over a range starting from a high concentration at or near the clinical Cmax and decreasing in half-log increments. If the clinical Cmax for an agent had not been determined, the highest concentration tested was 10 microM (Table 1).
Cell Culture. All cells were maintained in an incubator at 37 degrees C and 5% CO2 with 95% humidity. The PDC lines were cultured according to standard operating procedures established by the NCI PDMR (https://pdmr.cancer.gov). Briefly, all PDCs were thawed and cultured in Matrigel-coated flasks prepared with a working solution of 1X Ham's F-12 nutrient mix, without supplementation (Invitrogen, Waltham, MA, cat. 11765054), 100 U/mL penicillin-streptomycin (Invitrogen, cat. 15140122), and 2.5% Matrigel (Corning Inc., Corning, NY, cat. 354248) for the first three passages. All PDCs were cultured in complete DMEM/F-12 media containing advanced DMEM/F-12 (Invitrogen, cat. 12634028), 4.9% defined fetal bovine serum, heat inactivated (HyClone Laboratories Inc., Logan, UT, cat. SH30070.03HI), 389 ng/mL hydrocortisone (Sigma-Aldrich, cat. H4001), 9.7 ng/mL human EGF recombinant protein (Invitrogen, cat. PHG0313), 23.4 microg/mL adenine (Sigma-Aldrich, cat. A2786), 97.3 U/mL penicillin-streptomycin (Invitrogen, cat. 15140122), 1.9 mM L-glutamine (Invitrogen, cat. 25030081), and 9.7 microM Y-27632 dihydrochloride (Tocris Bioscience, Bristol, United Kingdom, cat. 1254). The PDCs were cultured in complete DMEM/F12 media without 10 microM Y-27632 dihydrochloride for at least two passages prior to the screen. The established cell lines NCI-H1341 and […] were cultured in DMEM/F-12, HEPES (Invitrogen, cat. 11330032), 5% defined fetal bovine serum (HyClone Laboratories Inc., cat. SH30070.03), ITS premix universal culture supplement [insulin (5 microg/mL), transferrin (5 microg/mL), and selenious acid (5 ng/mL)] […]

[1] = second compound 0.1 µM, first compound 0.0316 µM
[2] = second compound 0.1 µM, first compound 0.1 µM
[3] = second compound 0.1 µM, first compound 0.316 µM
[4] = second compound 0.1 µM, first compound 1 µM
[5] = second compound 0.1 µM, first compound 3.16 µM
[6] = second compound 0.1 µM, first compound 10 µM
[7] = second compound 0.316 µM, first compound 0.0316 µM
[8] = second compound 0.316 µM, first compound 0.1 µM
[9] = second compound 0.316 µM, first compound 0.316 µM
[10] = second compound 0.316 µM, first compound 1 µM
[11] = second compound 0.316 µM, first compound 3.16 µM
[12] = second compound 0.316 µM, first compound 10 µM
[13] = second compound 1 µM, first compound 0.0316 µM
[14] = second compound 1 µM, first compound 0.1 µM
[15] = second compound 1 µM, first compound 0.316 µM
[16] = second compound 1 µM, first compound 1 µM
[17] = second compound 1 µM, first compound 3.16 µM
[18] = second compound 1 µM, first compound 10 µM
[19] = second compound 3.16 µM, first compound 0.0316 µM
[20] = second compound 3.16 µM, first compound 0.1 µM
[21] = second compound 3.16 µM, first compound 0.316 µM
[22] = second compound 3.16 µM, first compound 1 µM
[23] = second compound 3.16 µM, first compound 3.16 µM
[24] = second compound 3.16 µM, first compound 10 µM
[25] = second compound 10 µM, first compound 0.0316 µM
[26] = second compound 10 µM, first compound 0.1 µM
[27] = second compound 10 µM, first compound 0.316 µM
[28] = second compound 10 µM, first compound 1 µM
[29] = second compound 10 µM, first compound 3.16 µM
[30] = second compound 10 µM, first compound 10 µM
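Wherever viability, T/C is given: spheroids mix tumor cells with HUVEC endothelium and human MSC stroma; luminescence taken as viability surrogate after a week of drug exposure.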

IC50 (second compound 0.1 µM) [nM] | IC50 (second compound 0.316 µM) [nM] | IC50 (second compound 1 µM) [nM] | IC50 (second compound 3.16 µM) [nM] | IC50 (second compound 10 µM) [nM] | Compound | viability, T/C [1] [%] | viability, T/C [2] [%] | viability, T/C [3] [%] | viability, T/C [4] [%] | viability, T/C [5] [%] | viability, T/C [6] [%] | viability, T/C [7] [%] | viability, T/C [8] [%] | viability, T/C [9] [%] | viability, T/C [10] [%] | viability, T/C [11] [%] | viability, T/C [12] [%] | viability, T/C [13] [%] | viability, T/C [14] [%] | viability, T/C [15] [%] | other results
> 10000 | > 10000 | > 10000 | 2660 | 1180 | COc1cc(Nc2ncc3c(n2)-c2ccc(Cl)cc2C(c2c(F)cccc2OC)=NC3)ccc1C(=O)O + CC(CO)NC(=O)c1cc(-c2ccc(Cl)cc2)nn(-c2cnn(C)c2)c1=O | 99.5 | 78.4 | 68.2 | 61.9 | 65.3 | 50 | 91.3 | 74.6 | 71.9 | 76.5 | 55 | 50.6 | 59.5 | 64.9 | 69.2 | viability, T/C [16]: 63.6%; viability, T/C [17]: 48.6%; viability, T/C [18]: 72.8%; viability, T/C [19]: 84.3%; viability, T/C [20]: 69.5%; viability, T/C [21]: 48%; viability, T/C [22]: 65.4%; viability, T/C [23]: 47.7%; viability, T/C [24]: 44.9%; viability, T/C [25]: 62.2%; viability, T/C [26]: 49.3%; viability, T/C [27]: 62.4%; viability, T/C [28]: 51.8%; viability, T/C [29]: 37.6%; viability, T/C [30]: 35%
486 | 484 | 492 | 371 | 232 | NS(=O)(=O)OCC1CC(n2ccc3c(NC4CCc5ccccc54)ncnc32)CC1O (stereo not given) + CC(CO)NC(=O)c1cc(-c2ccc(Cl)cc2)nn(-c2cnn(C)c2)c1=O | 87.2 | 92.5 | 61.7 | 29.5 | 20.6 | 18.7 | 93.1 | 90.2 | 61.1 | 30.5 | 19.5 | 18.3 | 90.5 | 97.7 | 62 | viability, T/C [16]: 31%; viability, T/C [17]: 21.6%; viability, T/C [18]: 20.7%; viability, T/C [19]: 85.5%; viability, T/C [20]: 83.1%; viability, T/C [21]: 49.8%; viability, T/C [22]: 31.3%; viability, T/C [23]: 20.8%; viability, T/C [24]: 14.7%; viability, T/C [25]: 68.8%; viability, T/C [26]: 66%; viability, T/C [27]: 41.6%; viability, T/C [28]: 31.2%; viability, T/C [29]: 19.2%; viability, T/C [30]: 15.2%

Source: PubChem BioAssay AID1918998 (Molecular Pharmacology Branch, DTP, NCI, 2023)
